# Experiment: Toxicity assay, repeated intragastrical administration to SD rats for 7 days
# Assay type: in vivo
# Conditions: 30 and 100 mg/kg qd
# Protocol: Evaluation of the toxicity of TGFβ inhibitor Compound 1 repeatedly intragastrically administered to SD rats for 7 days.
# Twenty six SPF grade SD rats (approximately 180˜200 g, 6-7 weeks old, half male and half female) were purchased from Shanghai Jiesijie Laboratory Animal Co., Ltd.
# Feeding conditions: SPF grade, animals were housed in plastic transparent rat cages, and 2-3 rats per cage. Room temperature: 20-26° C., relative humidity: 40-70%. 12 hours light/12 hours dark were alternated. The rats had free access to pellet feed for rats. The rats had free access to high-temperature sterilized water via drinking bottle.
# The animals were divided randomly into 5 groups, i.e. solvent control group, compound 1—30 mg/kg group, compound 1—100 mg/kg group, and the corresponding toxicokinetics groups. There were 6 rats in solvent control group, compound 1—30 mg/kg group and compound 1—100 mg/kg group, and there were 4 rats in each corresponding toxicokinetics groups, half male and half female.
# The dose of the test compound in the 7-day toxicity assay in rats was 30 and 100 mg/kg (qd), respectively, and the administration was continued for 7 days. Administration route: intragastrical administration, administration dosage: 10 ml/kg, administration frequency and administration period: daily morning administration, continuous administration for 7 days.
# The results of various indicators were entered into computer Excel and entered and processed by SPSS software package.
# The clinical symptom, food intake and anatomical gross observation were not processed statistically, and only the observation data of the observation items in the protocol were listed. Indicators such as body weight, organ weight, and clinical examination were processed statistically using SPSS.
compound,measurement,setting,value
"Cc1cccc(-c2nn(C3CCC3)cc2-c2ccnc(-c3ccc(S(C)(=O)=O)cc3)c2)n1 [Example 1, 4-(1-Cyclobutyl-3-(6-methylpyridin-2-yl)-1H-pyrazol-4-yl)-2-(4-(methylsulfonyl)phenyl)pyridine]",Blood biochemical indicators,7 days,No toxicological changes
same,Coagulation function and urine indexes compared with the solvent control group,7 days,no obvious abnormalities
same,Food intake,7 days,no obvious change
same,Safety under the conditions of this assay,7 days,good safety
same,Clinical observation of the animals during the administration,"7 days, intragastrical",no obvious abnormality
same,Body weight and body weight growth rate compared with the solvent control group,"7 days, p>0.05",no significant difference
same,Gross pathological anatomy (autopsy),after the last administration,no obvious abnormalities

# Reference: patent US10899741B2, “3,4-bipyridyl pyrazole derivative, and preparation method therefor and medical application thereof” (Jiangsu Hengrui Medicine Co., Ltd., priority 2016, dated 2021)
